Reference: the SangsterLogP compilation

Test: from Ebert, E.; Eckhardt, W.; Jakel, K.; Moser, P.; Sozzi, D.; Vogel, C. (1989). Quantitative structure-activity relationships of fungicidally active triazoles: analogs and stereoisomers of propiconazole …
Details: pH 7.0

## CCC1COC(Cn2cncn2)(c2ccc(NC(=O)c3ccc([N+](=O)[O-])cc3)cc2)O1 (stereo not given)
  logD: 2.17

## CCC1COC(Cn2cncn2)(c2ccc(Cl)cc2Cl)O1 (stereo not given)
  logD: 3.03

## Cc1ccc(C2(Cn3cncn3)OCCO2)cc1
  logD: 1.55

## CCC1COC(Cn2cncn2)(c2ccc(NC(=O)C(F)(F)F)cc2)O1 (stereo not given)
  logD: 1.08

## COCCOCC1COC(Cn2cncn2)(c2ccc(Cl)cc2Cl)O1 (stereo not given)
  logD: 2.03

## CC1COC(Cn2cncn2)(c2ccc(-n3cncn3)cc2Cl)O1 (stereo not given)
  logD: 1.28

## OCC1COC(Cn2cncn2)(c2ccc(Cl)cc2Cl)O1 (stereo not given)
  logD: 1.76

## CCC1COC(Cn2cncn2)(c2ccc(-c3ccccc3)cc2)O1 (stereo not given)
  logD: 3.71

## CCC1COC(Cn2cncn2)(c2ccc([N+](=O)[O-])cc2)O1 (stereo not given)
  logD: 1.52

## CCC1COC(Cn2cncn2)(c2ccc(NC(=O)NC)cc2)O1 (stereo not given)
  logD: 0.62
